Source: US20050288222A1, “Methods for enhancing the bioavailability of a drug” (priority 2000, published 2005)
In brackets after ≈: the same amount, converted by molar mass. Several values for one entry are separate records, joined by “and”; a condition that tells them apart may be missing. Equal entries are not always repeated. Where two headings read alike, the source gives them in different places. Each block holds one molecule with its values, some of them ahead of it. Non-standard residues stand in square brackets, D forms with d. Residues, ends and D or L forms follow the SMILES beside them. *: point of attachment. X1 = CC(C)C[C@H](C(=O)*)N(C)C

Key:
B-amyloid = B-amyloid (Homo sapiens, UniProt P05067); assay: KD of potent B-amyloid aggregation inhibitors (Table II); type: binding
[1] = rat, in vivo
Description: (§1) The drug cocktail was infused (100 μL/h) via a cannula in the external carotid artery so that the infusate was picked up by the blood and carried directly to the Circle of Willis/brain (via the left internal carotid artery, PTA occluded). At 30 minutes post cessation of the 10 minute IA infusion the left side of the brain was voided of blood by manually infusing 1 ml of saline via the cannula in the external carotid artery with the common carotid artery now ligated. The perfused left forebrain (choroid plexus removed) was subjected to capillary depiction (as described by Triguero et al., 1990) so as to produce brain supernatant that was void of blood vessels (as determined by alkaline phosphatase measurements).

[2] = in vivo
[3] = rat, in vivo; remark: listed apart in the source
Excerpt: The perfused, ipsilateral, left forebrain (choroid plexus removed) was subjected to capillary depletion (as described by Triguero et al., 1990) so as to produce brain supernatant that was void of blood vessels (as determined by alkaline phosphatase measurements).

[4] = rat, in vivo; remark: listed apart in the source
[5] = rat, in vivo; remark: listed apart in the source
in vivo [6] = conditions: male, Sprague-Dawley, rat
Description: as §1

in vivo [7] = assay: in vivo
[8] = Biodistribution of 3H-PPI-558 +/- cyclosporin A (experiment 4, Table III); conditions: for Kidney (expressed as % administered): rat, sac t = 61 min
[9] = rat, in vivo; remark: listed apart in the source

Sequence of B-amyloid (P05067 672-711 limits assumed): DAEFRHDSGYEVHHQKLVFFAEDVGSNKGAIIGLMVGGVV

Kd (B-amyloid): 0.92 nM | solubility (physchem): 1490 µg/mL (≈ 2510 µM)
Structure (SMILES): CC(C)C[C@@H](N)C(=O)N[C@@H](C(=O)N[C@H](Cc1ccccc1)C(=O)N[C@H](Cc1ccccc1)C(=O)N[C@H](C)C(N)=O)C(C)C [PPI-465, H-lvffa-NH2]

Structure (SMILES): CC(C)C[C@@H](NC(=O)c1ccc(O)cc1)C(=O)N[C@@H](C(=O)N[C@H](Cc1ccccc1)C(=O)N[C@H](Cc1ccccc1)C(=O)N[C@H](C)C(N)=O)C(C)C [PPI-558, 4-Hydroxybenzoyl-D-Leu-D-Val-D-Phe-D-Phe-D-Ala-NH2]
capillary bound level [1]: approx. 250 nM equiv. | capillary bound level [2]: very low levels | elevation of brain levels in the presence of cyclosporin A [3]: 10 fold | plasma levels in the presence of cyclosporin A [4]: elevated | Cartass FOLD INCREASE [5]: 4 fold | Colon FOLD INCREASE [5]: 4 fold | Duodenum FOLD INCREASE [5]: 6 fold | Fat FOLD INCREASE [5]: 2 fold | Heart FOLD INCREASE [5]: 3 fold | Ileum FOLD INCREASE [5]: 2 fold | Liver FOLD INCREASE [5]: 0.4 fold | Lung FOLD INCREASE [5]: 1 fold | Muscle FOLD INCREASE [5]: 5 fold | Pancreas FOLD INCREASE [5]: 7 fold | Spleen FOLD INCREASE [5]: 1 fold | Tongue FOLD INCREASE [5]: 5 fold | Urine FOLD INCREASE [5]: 1 fold | blood at sac FOLD INCREASE [5]: 6 fold | levels within the small intestine in the presence of cyclosporin A [5]: higher levels | level at time molar at 0.5 h (in vivo [6]): > 100 nM | level at time molar (in vivo [7]): < 5 nM | solubility (physchem): 1 µg/mL (≈ 1.4 µM) | Kidney (expressed as % administered) ([8]; PPI-558/DMPC (1:30) approx. 3 mg/kg IV, without cyclosporin A, MEAN): 0.95 % administered | Kidney (expressed as % administered) ([8]; PPI-558/DMPC (1:30) approx. 3 mg/kg IV, without cyclosporin A, single animals): 0.7 % administered and 1.7 % administered and 0.5 % administered | Kidney (expressed as % administered) ([8]; cyclosporin A 50 mg/kg IV + PPI-558/DMPC (1:30), MEAN): 2.59 % administered | Kidney (expressed as % administered) ([8]; cyclosporin A 50 mg/kg IV + PPI-558/DMPC (1:30), single animals, 50 mg/kg): 2.5 % administered and 2.7 % administered | Kidney FOLD INCREASE ([8]; with cyclosporin A versus without): 3 fold

Kd (B-amyloid): 0.29 nM | solubility (physchem): 2500 µg/mL (≈ 3930 µM)
Structure (SMILES): CC(C)C[C@@H](N)C(=O)N[C@H](Cc1ccccc1)C(=O)N[C@H](Cc1ccccc1)C(=O)N[C@@H](C(=O)N[C@H](CC(C)C)C(N)=O)C(C)C [PPI-578, H-lffvl-NH2]

Kd (B-amyloid): 0.33 nM | solubility (physchem): 970 µg/mL (≈ 1560 µM)
Structure (SMILES): CC(C)C[C@@H](N)C(=O)N[C@@H](C(=O)N[C@H](Cc1ccccc1)C(=O)N[C@H](Cc1ccccc1)C(=O)N[C@@H](C(N)=O)C(C)C)C(C)C [PPI-657, H-D-Leu-D-Val-D-Phe-D-Phe-D-Val-NH2] (H-[dL][dV][dF][dF][dV]-NH2)

solubility (physchem): 180 µg/mL (≈ 271 µM)
Structure (SMILES): CC(C)C[C@H](C(=O)N[C@@H](C(=O)N[C@H](Cc1ccccc1)C(=O)N[C@H](Cc1ccccc1)C(=O)N[C@H](CC(C)C)C(N)=O)C(C)C)N(C)C [PPI-1007, (CH3)2-lvffl-NH2] (X1-[dV][dF][dF][dL]-NH2)

elevation of brain levels in the presence of cyclosporin A [3]: 5 fold | plasma levels in the presence of cyclosporin A [4]: elevated | levels within the liver in the presence of cyclosporin A [9]: decreased levels | solubility (physchem): 1000 µg/mL (≈ 1540 µM)
Structure (SMILES): CN[C@H](CC(C)C)C(=O)N[C@@H](C(=O)N[C@H](Cc1ccccc1)C(=O)N[C@H](Cc1ccccc1)C(=O)N[C@H](CC(C)C)C(N)=O)C(C)C [PPI-1019, N-methyl-(D-Leu-D-Val-D-Phe-D-Phe-D-Leu)-NH2]

solubility (physchem): 5000 µg/mL (≈ 6660 µM)
Structure (SMILES): CC(C)C[C@@H](N)C(=O)N[C@@H](C(=O)N[C@H](Cc1ccccc1)C(=O)NNC(=O)[C@@H](Cc1ccccc1)NC(=O)[C@H](NC(=O)[C@H](N)CC(C)C)C(C)C)C(C)C [PPI-1125, (H-lvf-NH-)2]
